According to PMC5706701, “Development of a homogenous high-throughput assay for inositol hexakisphosphate kinase 1 activity” (PLoS ONE, 2017):
Counter-ions that a name gives are not always drawn.

Molecular target: T1, Human IP6K1 (Homo sapiens, UniProt Q92551)
T1 construct: GST (N, cleaved yes); made in house; host or cells: C43 E. coli, pGEX-6P-2
Test: IP6K1 high-throughput screen of the Sigma LOPAC (ADP-Glo Max, single point);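 note: final compound concentration 10µM in 5% DMSO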
Format: biochemical

[1] = LOPAC single-point screen, ADP-Glo Max luminescence raw signal per well
[2] = LOPAC single-point screen, Z-score relative to plate average and StDev
[3] = LOPAC single-point screen, ADP-Glo Max raw signal per well
[4] = LOPAC single-point screen, Z-score against plate average and StDev
[5] = Sigma LOPAC single-point screen, ADP-Glo Max raw signal per well
[6] = Sigma LOPAC single-point screen, Z-score from plate average and StDev
[7] = LOPAC single-point screen, Z-score from plate average and StDev
[8] = LOPAC single-point screen, Z-score from raw signal with plate average and StDev

T1 sequence (Q92551 whole entry): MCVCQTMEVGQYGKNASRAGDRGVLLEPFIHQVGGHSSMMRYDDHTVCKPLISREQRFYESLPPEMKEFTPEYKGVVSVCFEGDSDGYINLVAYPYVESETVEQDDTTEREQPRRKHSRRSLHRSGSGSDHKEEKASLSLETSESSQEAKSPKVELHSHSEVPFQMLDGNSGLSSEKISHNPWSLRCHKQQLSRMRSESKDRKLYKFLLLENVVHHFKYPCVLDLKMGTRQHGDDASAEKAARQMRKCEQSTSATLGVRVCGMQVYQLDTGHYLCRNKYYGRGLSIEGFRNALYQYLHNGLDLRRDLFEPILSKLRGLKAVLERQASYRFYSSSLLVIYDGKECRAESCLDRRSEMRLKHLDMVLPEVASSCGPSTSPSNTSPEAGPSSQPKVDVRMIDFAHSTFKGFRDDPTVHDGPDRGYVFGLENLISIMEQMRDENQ

CCCNC[C@H](O)COc1ccccc1C(=O)CCc1ccccc1.Cl [(S)-(-)-propafenone hydrochloride]
Raw Signal [1]: 52495 | Z-score [2]: -0.6856

C[C@]12CCC(=O)C=C1CC[C@@H]1[C@@H]2CC[C@]2(C)C(=O)CC[C@@H]12 [4-Androstene-3,17-dione]
Raw Signal [3]: 58885 | Z-score [4]: 0.1712

Cl.O=C(O)Cc1c[nH]cn1 [Imidazole-4-acetic acid hydrochloride]
Raw Signal [3]: 55616 | Z-score [4]: 0.09118

CC1=C(C)C(=O)C(CCCCC#CCCCC#CCO)=C(C)C1=O [AA-861]
Raw Signal [1]: 50345 | Z-score [2]: -1.333

CC(C[N+](C)(C)C)OC(N)=O (centres unmarked) [Bethanechol chloride]
Raw Signal [3]: 59240 | Z-score [4]: 0.2337

C[N+](C)(C)CCC(=O)c1cccc2ccccc12.[I-]
Raw Signal [3]: 55064 | Z-score [4]: 0.1127

NCCc1c[nH]c2ccccc12 [Tryptamine hydrochloride]
Raw Signal [5]: 60596 | Z-score [6]: 0.4725

O=Nc1ccc2oc(=O)ccc2c1 [6-Nitroso-1,2-benzopyrone]
Raw Signal [5]: 57563 | Z-score [6]: 0.5326

CCN(CC)CCCC(C)Nc1c2ccc(Cl)cc2nc2ccc(OC)cc12 (centres unmarked) [Quinacrine dihydrochloride]
Raw Signal [5]: 60550 | Z-score [6]: 0.8794

CC1(C(=O)O)C2CCC(O2)C1(C)C(=O)O (centres unmarked) [Cantharidic Acid]
Raw Signal [5]: 61779 | Z-score [6]: 0.6809

CC1=NN=C(c2ccc(N)cc2)c2cc3c(cc2C1)OCO3.Cl [GYKI 52466 hydrochloride]
Raw Signal [1]: 61943 | Z-score [7]: 1.376

COC(=O)[C@@H](N)CCCN=C(N)N[N+](=O)[O-].Cl
Raw Signal [5]: 58464 | Z-score [6]: 0.6839

[N-]=[N+]=Nc1ccc(C(=O)CSC[C@H](NC(=O)CC[C@H](N)C(=O)O)C(=O)NCC(=O)O)cc1 [S-(p-Azidophenacyl)glutathione]
Raw Signal [3]: 57217 | Z-score [8]: -0.1226

C=CCc1ccccc1OCC(O)CNC1(C)CCC(C(C)(C)NC(=O)CBr)CC1 (centres unmarked) [Bromoacetyl alprenolol menthane]
Raw Signal [3]: 55252 | Z-score [8]: -0.4687

NC(CCCP(=O)(O)O)C(=O)O (racemic) [(±)-2-Amino-5-phosphonopentanoic acid]
Raw Signal [5]: 60299 | Z-score [6]: 0.4202

CCCCC/C=C\C/C=C\C/C=C\C/C=C\CCCC(=O)NCC(=O)O [N-arachidonylglycine]
Raw Signal [3]: 55672 | Z-score [8]: -0.3947

N#CC(C#N)=C(N)/C(C#N)=C/c1cc(O)c(O)c(O)c1 [Tyrphostin 51]
Raw Signal [1]: 44032 | Z-score [2]: -2.33

CC(C)N(CCC(C(N)=O)(c1ccccc1)c1ccccn1)C(C)C (centres unmarked) [Disopyramide]
Raw Signal [1]: 43822 | Z-score [2]: -2.304

Cc1nc2sccn2c(=O)c1CCN1CCC(=C(c2ccccc2)c2ccc(F)cc2)CC1 [Diacylglycerol kinase inhibitor I]
Raw Signal [5]: 59347 | Z-score [6]: 0.8489

C[C@]12C[C@H](O)[C@H]3[C@@H](CCC4=CC(=O)CC[C@@]43C)[C@@H]1CC[C@@H]2C(=O)CO [Corticosterone]
Raw Signal [3]: 55741 | Z-score [8]: -0.3826

C#CCN(C)[C@H](C)Cc1ccccc1.Cl [R-(-)-Deprenyl hydrochloride]
Raw Signal [3]: 53619 | Z-score [8]: -0.1301

Cl.Cl.NCCNS(=O)(=O)c1cccc2cnccc12 [H-9 dihydrochloride]
Raw Signal [5]: 64375 | Z-score [6]: 1.138

C[N+]1(C)[C@@H]2C[C@@H](OC(=O)[C@H](CO)c3ccccc3)C[C@H]1[C@@H]1O[C@@H]12 [(-)-Scopolamine methyl bromide]
Raw Signal [3]: 55432 | Z-score [8]: -0.115

Nc1ccc(N2C(=O)c3ccccc3C2=O)c(Cl)c1 [N-(4-Amino-2-chlorophenyl)phthalimide]
Raw Signal [5]: 61206 | Z-score [6]: 0.58

CC1CCN=C(N)S1.Cl (racemic) [(±)-AMT hydrochloride]
Raw Signal [5]: 65458 | Z-score [6]: 1.329

COc1cccc(NC(=O)/C=C/c2ccc(Cl)cc2)c1 [SB-366791]
Raw Signal [1]: 52546 | Z-score [2]: -0.6757

C[C@]12CC[C@@H]3c4ccc(O)cc4CC[C@H]3[C@@H]1CC[C@@H]2O [beta-Estradiol]
Raw Signal [1]: 51790 | Z-score [2]: -0.6858

Cl.Cl.Clc1cccc(N2CCNCC2)c1
Raw Signal [5]: 60295 | Z-score [6]: 0.4195

Br.CCCN1CCc2cc(O)cc3c2[C@H]1Cc1ccc(O)c(O)c1-3
Raw Signal [1]: 52120 | Z-score [2]: -0.6188

c1ccc2c(c1)CCCC2C1=NCCN1 (centres unmarked) [Tetrahydrozoline hydrochloride]
Raw Signal [3]: 57605 | Z-score [4]: 0.3072

CN/C(=N\c1ccc(C2=NNC(=O)CC2C)cc1)NC#N (centres unmarked) [SKF 94836]
Raw Signal [3]: 55520 | Z-score [8]: -0.09788

CN1CCc2cccc(Cl)c2CC1 [SKF 86466]
Raw Signal [3]: 54503 | Z-score [8]: -0.2955

CN(CCOc1ccc(C[C@H](Nc2ccccc2C(=O)c2ccccc2)C(=O)O)cc1)c1ccccn1 [GW1929]
Raw Signal [3]: 55887 | Z-score [4]: 0.1462

C[N+]1(C)[C@@H]2CC(OC(=O)[C@H](CO)c3ccccc3)C[C@H]1[C@@H]1O[C@@H]12.O=[N+]([O-])[O-] (single isomer, unassigned; (-)) [(-)-Scopolamine methyl nitrate]
Raw Signal [3]: 57036 | Z-score [4]: 0.1966

N#CCCN.N#CCCN.O=C(O)/C=C/C(=O)O [3-Aminopropionitrile fumarate]
Raw Signal [1]: 53618 | Z-score [2]: -0.7565

Cc1ccccc1N1C(=O)c2cc(S(N)(=O)=O)c(Cl)cc2NC1C (centres unmarked) [Metolazone]
Raw Signal [3]: 54501 | Z-score [4]: 0.01806

CC(=O)OCC(=O)[C@@]1(O)CC[C@H]2[C@@H]3CCC4=CC(=O)CC[C@]4(C)[C@H]3C(=O)C[C@@]21C [Cortisone 21-acetate]
Raw Signal [3]: 59780 | Z-score [4]: 0.3288

CCc1cccc2c3c([nH]c12)C(CC)(CC(=O)O)OCC3 (centres unmarked) [Etodolac]
Raw Signal [5]: 60333 | Z-score [6]: 1.049

CC(C)[C@@]1(NC(=O)[C@@H]2C=C3c4cccc5[nH]cc(c45)C[C@H]3N(C)C2)O[C@@]2(O)[C@@H]3CCCN3C(=O)[C@H](Cc3ccccc3)N2C1=O [Ergocristine]
Raw Signal [1]: 51436 | Z-score [2]: -0.7577

Oc1ccc2c3c1O[C@H]1c4oc5ccccc5c4C[C@@]4(O)[C@@H](C2)N(CC2CC2)CC[C@]314 [Naltriben methanesulfonate]
Raw Signal [3]: 55337 | Z-score [4]: 0.1585

NC1CCN(O)C1=O (racemic) [(±)-HA-966]
Raw Signal [3]: 57782 | Z-score [4]: -0.02309

Cl.NCCc1ccc(O)cc1 [4-Hydroxyphenethylamine hydrochloride]
Raw Signal [3]: 54724 | Z-score [8]: -0.2525

C=CC(N)CCC(=O)O (racemic) [(±)-gamma-Vinyl GABA]
Raw Signal [1]: 68019 | Z-score [7]: 2.33

COc1cc(CCN)ccc1O.Cl
Raw Signal [3]: 53513 | Z-score [8]: -0.1479

CC(C)NCC(O)COc1cccc2[nH]ccc12 (centres unmarked) [Pindolol]
Raw Signal [1]: 62809 | Z-score [7]: 1.414

COc1ccccc1N1CCN(CCN(C(=O)C2CCCCC2)c2ccccn2)CC1.O=C(O)/C=C\C(=O)O [WAY-100635 maleate]
Raw Signal [3]: 54317 | Z-score [8]: -0.3316
